# Reference: US20080089860A1, “Therapeutic compositions and methods useful in treating cancer” (priority 2006, published 2008)
# “Also recorded” adds a separate entry of the source.
# Experiments:
# Baf3 cells = test: Baf3 cell proliferation assay; type: cell-based, murine
# Protocol: The murine hematopoietic cell line Baf3 was maintained in RPMI 1640 medium supplemented with 10% fetal calf serum (FCS) and murine IL-3 (20 units/ml) as described previously in Damen et al., J. Biol. Chem. 270, 23402 (1995). Human myeloid cell line TF-1 was maintained in RPMI 1640 supplemented with 10% FCS and 40 ng/ml of recombinant human GM-CSF as described previously in Thomassen et al., Clin. Immunol. 95, 85 (2000). For cell proliferation assays, cells were washed in 10% FCS medium twice, resuspended in 10% FCS medium, incubated at 37° C. for 16 hours, and then cultured at 37° C. in 10% FCS medium containing various amounts of cytokines, sodium stibogluconate, or potassium antimonyl tartrate for 3-6 days as indicated. The cell numbers in proliferation assays were determined by an MTT assay or by microscopic cell counting as indicated.
# MDA231 cells = test: MDA231 breast cancer cell growth, MTT assay; type: cell-based, human; conditions: single agent, 50 μg/ml and 100 μg/ml
# Protocol: For cell proliferation assays, cells were grown in 10% FCS culture medium containing various amounts of IFNs and/or sodium stibogluconate in 96 well plates and cultured at 37° C. for 3 or 6 days as indicated. The numbers of viable cells in proliferation assays were determined by MTT assays as described in Phatak et al., J. Immunol. 167, 3391 (2001).
# intracellular Flag-PRL-1 = biological target: T1, intracellular Flag-PRL-1 (Homo sapiens, UniProt Q93096); test: Immunocomplex PTPase assay, Flag-PRL-1 NIH3T3 transfectants; type: cell-based; conditions: cells treated 5 min
# T1 construct: expressed in transfected cells
# Protocol: Immunocomplex PTPase assays were performed to assess the effects of sodium stibogluconate on intracellular PTPases. Cells were untreated or treated with sodium stibogluconate for 5 minutes, washed with fresh medium and then lysed in cold lysis buffer (50 mM Tris, pH 7.4; 150 mM NaCl; 1% NP40; 2 mM PMSF; 20 μg/ml of Aprotinin). The lysates were incubated with an anti-Flag antibody in immunoprecipitation assays. The immunocomplexes were collected with protein G sepharose beads (Pharmacia) and washed in cold lysis buffer for 4 times. […] C. for 18 hrs. 100 µL of malachite green solution (UBI) was added to each reaction prior to measurement of OD660 to quantify the amounts of free phosphate cleaved by the PTPases from the peptide substrate (Pathak et al., J. Imumol. 167, 3391 (2001)). The remaining 10% contents of individual samples were analyzed by SDS-PAGE/Western blotting to quantify the relative amounts of the phosphatase proteins. […]
# (§1) The effects of sodium stibogluconate on intracellular PTPases were assessed using NIH3T3 or WM9 transfectants. […]
# [1] = test system: WM9 transfectants (vector, PRL-1, PRL-1R86); test: Growth of WM9 transfectants, MTT assay; type: cell-based, human; conditions: 50 or 100 μg/ml
# Protocol: NIH3T3 (Yi, et al., Blood 85, 87 (1995)), WM9 (Forsberg, et al., Proc. Nat. Acad. Sci. USA 90, 393 (1993)), DU145 (Mickey, et al., Cancer Res. 37, 4049 (1977)), LoVo (Drewinko, et al., Cancer Res. 36, 467 (1976)), HEY (Buick, et al., Cancer Res. 45, 3668 (1985)), U251 (Yoshida, et al., Cancer 50, 410 (1982)), A549 (Giard, et al., J. Natl. Cancer Inst. 51, 1417 (1973)) and SK-N-SH (Helson, et al., Cancer Res. 35, 2594 (1975)) cell lines have been described and were cultured in RPMI 1640 supplemented with 10% fetal calf serum (FCS). For measurement of sodium stibogluconate effects on cell growth in vitro, cells were cultured in the absence (−) or presence (+) of various amounts of sodium stibogluconate for 6 days with viable cells quantified by MTT assays (Mosmann, J. Immunol. Methods 65, 55 (1983)). Percentages of growth inhibition by sodium stibogluconate were calculated (.+−.x %).
# as §1
# To further assess whether expression of the PRL-1R86 mutant affects sodium stibogluconate-induced growth inhibition, the transfectants were cultured in the absence or presence of sodium stibogluconate for 6 days with viable cells determined by MTT assays. […]
# T1 sequence (Q93096 whole entry): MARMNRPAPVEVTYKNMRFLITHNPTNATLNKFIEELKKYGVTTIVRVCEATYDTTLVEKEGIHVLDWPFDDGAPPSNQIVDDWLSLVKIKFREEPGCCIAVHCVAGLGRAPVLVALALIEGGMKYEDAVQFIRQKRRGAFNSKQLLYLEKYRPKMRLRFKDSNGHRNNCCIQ
smiles,measurement,setting,value
O.O.O.O.O.O.O.O.O.O=C([O-])[C@@H]1[O][Sb]2([O-])([O][Sb]34([OH])[O][C@H]([C@H](O)CO)[C@H]([O]3)[C@H](C(=O)[O-])[O]4)[O][C@H]([C@H](O)CO)[C@@H]1[O]2.[Na+].[Na+].[Na+] [sodium stibogluconate],IL-3-induced Baf3 growth,"Baf3 cells; 1,000 μg/ml",suppressed
same,cell proliferation and viability in the absence of IL-3,Baf3 cells; day 3 culture,failed to support cell proliferation or maintain cell viability
same,MDA231 cells in day 6 culture,MDA231 cells,killed all cells; also recorded: complete or near complete killing
same,PTPase activity of immunocomplexes from treated Flag-PRL-1 transfectants,intracellular Flag-PRL-1,little PTPase activities
same,growth inhibition of R86 cells,[1],only modest growth inhibition
